Experimental findings from EP1151753B1, “PREVENTIVE AND THERAPEUTIC AGENTS FOR ARTERIOSCLEROSIS” (CCI CORPORATION, priority 1999, dated 2000) are described below.

Series [1] can be described thus: Lipoprotein analysis, WHHL rabbit model. The series is classed as in vivo, WHHL type rabbits. To be noted: WHHL rabbits. The source says:
1. Animal used and feeding conditions In the test, female and male WHHL type rabbits (SPF: Kitayama Labels K.K.) which were eight weeks old at the time of arrival at the laboratory were subjected to quarantine and domestication and visually inspected as to the general condition and, after the absence of abnormality was confirmed, put to use. The body weights at the time of starting administration (at the age of nine weeks) were in the range of 1.5 - 1.9 kg in the case of male rabbits and in the range of 1.4 - 1.8 kg in the case of female rabbits. Throughout the entire duration of the test, the animals were raised as accommodated one each in hanger cages of aluminum installed on a stainless steel rack inside a clean feeding chamber set at a temperature in the range of 20 - 26°, a relative humidity in the range of 40 - 70%, a number of ventilations in the range of 10 - 20 turns/hour, and an illumination time within the range of 12 hours (7.00 - 19:00). They were fed on a commercially available radioactively sterilized solid feed (made by Oriental Kobo K.K. and sold under the product code of "RC4") and they were left freely drinking the tap water delivered by an automatic water supplying device. 2. Setting dosage and method of administration The dosage of TMG was set at 800 mg/head/day. The TMG was solved in reagent grade ethanol. The produced solution was sprayed on the feed and the wet feed was left drying in the air. A mixed feed was prepared so as to contain 800 mg of TMG per 100 g of the feed. The mixed feed was given to the rabbits every morning at a rate of 100 g/day per head for 27 weeks for the sake of attaining oral consumption of the TMG. The feed for the control group was obtained by spraying ethanol alone on a feed and air-drying the wet feed. It was given to the rabbits of the control group at a rate of 100 g/day per head for 27 weeks. 3. […] The blood was centrifuged to separate blood serum and the blood serum was analyzed for the items shown in Table 5 by the use of an automatic analyzer (made by Hitachi. Ltd. and sold under the product code of "736-20"). The body weight of each rabbit was measured at the rate of once a week throughout the entire duration of the administration.
5. […] The blood serum was ultracentrifuged by Hatch and Lees method (Hatch, F. T., and Lees, R. S. (1968) Advan, Lipid Res. 6, 1-68) using a centrifuge (the rotor; Beckman 70.1 Ti) made by Beckman and sold under the product code of "L-70") to separate low specific gravity lipoprotein (1.006 < d < 1.063), with the cholesterol amount of the LDL fraction determined by the cholesterol oxidase DASO method and the amount of HDL-cholesterol determined by subjecting the blood serum to the phospho-tungstic acid magnesium salt precipitation method. […]

Another series concerns ICR mice. Put plainly: Test for acute toxicity. The following applies: 500 mg/kg orally, suspension in aqueous 5% gum arabic solution, visual inspection for one week. The format is in vivo. The procedure: The agent of this invention for preventing and curing arteriosclerosis was tested for acute toxicity with a view to confirming the safety. Groups each formed of three ICR mice aged 4 to 5 weeks were used for the test. The same TMG as mentioned above was suspended as the chromanol glucoside in an aqueous 5% gum arabic solution. The suspension was orally administered to the mice at a dosage of 500 mg/kg as reduced to TMG and the mice were kept under visual inspection for one week. To the control group, the aqueous 5% gum arabic solution was orally administered at a rate of 0.3 ml.

The test system of the next series is WHHL rabbit model. Put plainly: Evaluation of morbid alteration of aorta (Sudan dyeing), WHHL rabbit model. The series is classed as in vivo, WHHL type rabbits. The following applies: WHHL rabbits. An excerpt:
1. Animal used and feeding conditions In the test, female and male WHHL type rabbits (SPF: Kitayama Labels K.K.) which were eight weeks old at the time of arrival at the laboratory were subjected to quarantine and domestication and visually inspected as to the general condition and, after the absence of abnormality was confirmed, put to use. The body weights at the time of starting administration (at the age of nine weeks) were in the range of 1.5 - 1.9 kg in the case of male rabbits and in the range of 1.4 - 1.8 kg in the case of female rabbits. Throughout the entire duration of the test, the animals were raised as accommodated one each in hanger cages of aluminum installed on a stainless steel rack inside a clean feeding chamber set at a temperature in the range of 20 - 26°, a relative humidity in the range of 40 - 70%, a number of ventilations in the range of 10 - 20 turns/hour, and an illumination time within the range of 12 hours (7.00 - 19:00). […] The blood was centrifuged to separate blood serum and the blood serum was analyzed for the items shown in Table 5 by the use of an automatic analyzer (made by Hitachi. Ltd. and sold under the product code of "736-20"). The body weight of each rabbit was measured at the rate of once a week throughout the entire duration of the administration. […]

The mark [2] stands for this setting: TMG 800 mg/head/day for 27 weeks.
The mark [3] stands for this setting: TMG 800 mg/head/day in feed, 26th week of administration, average ± SE.

With `Cc1c(C)c2c(c(C)c1O)CCC(C)(C[C@H]1O[C@H](CO)[C@@H](O)[C@H](O)[C@H]1O)O2` (stereo partly drawn) [TMG, 2-(α-D-glucopyranosyl)methyl-2,5,7,8-tetramethyl chroman-6-ol], the “activity of lowering the HDL-cholesterol” value in series [1] (setting [2]) was “no activity”. In series [1] (setting [3]), this molecule had an HDL-CHO of 5 ± 1 mg/dL and an LDL-CHO of 746 ± 29 mg/dL. The LDL-TMG entry in series [1] (amount of TMG in LDL fraction by HPLC, TMG 800 mg/head/day in feed, 26th week of administration) is “not detected”. Also, in the series with ICR mice, the fatality result is reported as “None of the mice”. Besides, the “occurrence of the atherosclerosis” value with WHHL rabbit model (setting [2]) is on record as “significantly repressing”. Moreover, the “Surface involvement (%)” value in the series on WHHL rabbit model (area occupied by deposited lipid in whole area of aorta, TMG 800 mg/head/day in feed, 27th week, control 64.6±3.9, p < 0.05) turned out to be 52.4 ± 4.7 %.
